# Experimental data as given in PubChem BioAssay (NCI).
#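 Protocol summary: plate cells (96-well), add compound at 5 concentrations, incubate 48 h, interpolate endpoints linearly. Definition used: TGI = concentration required for complete inhibition of growth.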
# How the values were obtained:
# Test in all cases: NCI anticancer screen, dose series, 48 h
# [1] = tested on: A498 renal
# [2] = tested on: HCT-116 colon
# [3] = tested on: HCT-15 colon
# [4] = tested on: MOLT-4 leukemia
# [5] = tested on: OVCAR-3 ovarian
# [6] = tested on: OVCAR-8 ovarian
# [7] = tested on: SF-539 CNS
# [8] = tested on: SK-MEL-28 melanoma
# [9] = tested on: SK-OV-3 ovarian
# [10] = tested on: TK-10 renal
# [11] = tested on: MDA-N
# [12] = tested on: T-47D breast
Compound,TGI [1] [µM],TGI [2] [µM],TGI [3] [µM],TGI [4] [µM],TGI [5] [µM],TGI [6] [µM],TGI [7] [µM],TGI [8] [µM],TGI [9] [µM],TGI [10] [µM],TGI [11] [µM],TGI [12] [µM]
OC(Cn1cncn1)(Cn1cncn1)c1ccc(Cl)cc1Cl,> 100,> 100,> 100,> 100,> 100,> 100,> 100,> 100,> 100,> 100,,
O=C1/C(=C/c2ccc(O)cc2)CCC1CNc1ccc(Cl)cc1 (stereo unspecified),28.4,5.77,2.83,6.45,6.1,7.1,15.5,24.2,20.9,10.3,20.9,
CC1OC(OP(=O)(OCc2ccccc2)OCc2ccccc2)C(OC(=O)c2ccccc2)C(OC(=O)c2ccccc2)C1I (stereo unspecified),,> 100,> 100,59.1,> 100,> 100,,> 100,> 100,> 100,,
CC(=O)OC1COC(N2C(=O)C(=O)c3cc(Br)c([N+](=O)[O-])cc32)C(OC(C)=O)C1OC(C)=O (stereo unspecified),,> 100,> 100,88.5,> 100,> 100,> 100,> 100,> 100,> 100,,
CCC1OC2C(CC=C(C)C)=C3OC(C)(O)C(C)(CC)C(O)C3=C3OC(=O)C=C1C32 (stereo unspecified),> 100,> 100,> 100,> 100,,,53.6,> 100,> 100,> 100,,> 100
Cn1cc(C(=O)C2CCCCC2)ccc1=O,,> 100,> 100,> 100,> 100,> 100,> 100,> 100,> 100,> 100,,
C[C@H](NC(=O)OC1C2C=CC(O)C1CC2)c1ccccc1 (stereo partly specified),> 100,> 100,33.6,> 100,> 100,> 100,> 100,> 100,> 100,> 100,,
c1ccc(/C(=N/Nc2cnccn2)c2ncccn2)cc1,,> 100,> 100,> 100,> 100,> 100,> 100,> 100,> 100,,> 100,
Nc1nc(Cl)cc(NCC2(CO)CC(CCCCc3ccccc3)C2)n1 (stereo unspecified),> 100,> 100,> 100,> 100,> 100,> 100,> 100,> 100,> 100,> 100,> 100,
COc1ccc(NS(=O)C2CCCCC2)cc1 (stereo unspecified),,> 100,> 100,> 100,> 100,> 100,> 100,> 100,,> 100,,
CC(C)=NN/C(=N\S(=O)(=O)c1cc(Cl)c(Oc2ccc([N+](=O)[O-])cc2Cl)c(Cl)c1)Nc1ccc(Cl)cc1,,> 100,> 100,> 100,> 100,> 100,,> 100,,> 100,> 100,> 100
Fc1ccc(C(=NCc2ccccc2)N2CCOCC2)cc1,> 100,> 100,> 100,> 100,> 100,> 100,> 100,> 100,> 100,> 100,> 100,
O=Cc1cc(O)c(O)c(O)c1-c1c(C=O)cc(O)c(O)c1O,> 100,> 100,> 100,> 100,> 100,> 100,> 100,> 100,> 100,> 100,,
Cc1c(Cl)cccc1NC(=O)C(=O)C1C(=O)NC(=O)NC1=O,> 100,> 100,> 100,> 100,> 100,> 100,> 100,> 100,> 100,> 100,,
CCOC(=O)/C(O)=C(\C=N\C(=S)Nc1ccc(Cl)c(Cl)c1)C(=O)OCC,,> 100,> 100,> 100,> 100,> 100,> 100,> 100,> 100,> 100,> 100,
CC(C)(C)c1cc(C2COC(=O)COCCOCC(=O)OCCOCCO2)cc(C(C)(C)C)c1O (stereo unspecified),> 100,> 100,> 100,> 100,> 100,> 100,> 100,> 100,> 78.4,32.4,,> 31.6
C#CCNC(Cc1ccccc1)C(=O)O (stereo unspecified),> 100,> 100,> 100,> 100,> 100,> 100,,> 100,> 100,> 100,,> 100
CCOC(=O)c1c(OCC)[nH]c(=O)c(C(c2ccc(F)cc2)c2c(O)c(C(=O)OCC)c(OCC)[nH]c2=O)c1O,26.2,> 100,40.4,71,39.7,28.1,23.5,27,,67.7,,32.7
N#Cc1nn(-c2ccc(Cl)cc2)c(N)c2c(=N)n3nc(-c4ccccc4)cc3nc12,> 56.7,> 100,> 100,> 100,> 35.5,> 100,,,29.3,> 100,,
C=C1C(=O)O[C@H]2C1C[C@@H](O)[C@@]1(C)OC1CC[C@@]1(C)O[C@H]21 (stereo partly specified),,34.3,37.9,24.8,,> 100,,38.8,> 100,35.3,,
N#CC(C(=O)c1ccccc1F)c1nc2cc(C(F)(F)F)ccc2s1 (stereo unspecified),45.8,41.9,56.7,> 100,52.7,> 100,78.5,> 100,> 100,> 100,,> 100
